One block for each molecule: values may come before it.
Experiments:
Assay type in all cases: physicochemical
[1] = Base deblocking and stability of 9-xanthenylmethyl and 9,10-dihydro-9-anthracenylmethyl derivatives; details: room temperature; for time needed to complete the deblocking: DBU 100 eq.; for time needed to complete the deblocking / time for evidence for initiation of the deblocking: DMF; for time for evidence for initiation of the deblocking: piperidine 100 eq.
Description: 1. Deblocking of Xmoc-PCA in 1,5,9-Triazabicyclo[4,4,0]dec-5-ene Solution: To a solution of 7.90 mg (0.0216 mmol) of Xmoc-PCA in 0.6 mL of pyridine was added 0.15 g (1.078 mmol 50 eq.) of 1,5,9-triazabicyclo[4,4,0]dec-5-ene (TBD). The mixture was stirred at room temperature and monitored by TLC with an eluant consisting of Skelly B--EtOAc (3:1). Complete deblocking had occurred after 25 minutes.
2. Base Deblocking of 9-Xanthenylmethyl Phenylacetate: a. In Piperdine Solution: To a solution of 13.39 mg of 9-XM-phenylacetate in 1.6 mL of DMF was added 0.4 mL (100 eq.) of piperidine. The mixture was stirred at room temperature. […] In DBU Solution: To a solution of 6.36 mg of 9-XM-phenylacetate in 0.9 mL of DMF was added 0.3 mL of 1,8-diazabicyclo[5,4,0]-undec-7-ene (DBU) (100 eq.). The mixture was stirred at room temperature. […] In TBD Solution: To a solution of 7.91 mg of 9-XM-phenylacetate in 0.3 mL of pyridine was added 100 mg (30 eq.) of 1,5,9-triazabicyclo[4,4,0]dec-5-ene. The mixture was stirred at room temperature.
1. General Procedure for Studying the Stabilities of DHAmoc-PCA, Xmoc-PCA, and DC-Xmoc-PCA in Piperidine Solution To a solution of urethane (0.0294 mmol) in 1.2 mL of DMF was added 0.3 mL (2.94 mmol, 100 eq.) of piperidine. The mixture was stirred at room temperature and monitored by TLC with an eluant consisting of Skelly B--EtOAc (3:1). Evidence for initiation of the deblocking required 2 minutes for DC-Xmoc-PCA, 3.5 hours for Xmoc-PCA, and 7 hours for DHAmoc-PCA.
2. General Procedure for Studying the Deblocking of Xmoc-PCA and DHAmoc-PCA in DBU Solution: To a solution of urethane (0.0324 mmol) in 0.5 mL of DMF was added 0.5 mL (3.24 mmol, 100 eq.) of 1,8-diazabicyclo[5,4,0]undec-7-ene. The mixture was stirred at room temperature and monitored by TLC with the eluant consisting of Skelly B--EtOAc (3:1). The time needed to complete the deblocking was 3.5 hours for Xmoc-PCA, and 6 hours for DHAmoc-PCA.

[2] = Base deblocking of R-Fmoc-aniline by various amines; details: for Time for Complete Deblocking / Time for Complete Scavenging of Dibenzofulvene: room temperature
Description: 2. General Procedure for Studying the Base Deblocking of the Urethanes R-Fmoc-aniline (R=TMS, DMPS, DPMS, DT-TMS, TIPS): A solution of urethane (0.05 mmol) in a sample of redistilled base (5 mmol, 100 eq.) was allowed to stand at room temperature. The reaction was monitored periodically by TLC with an eluant consisting of Skelly B--CH2 Cl2 (1:1). No reaction occurred according to the TLC test for urethanes having R=TIPS in the case of any of the bases tested after 24 hours.

[3] = Deblocking of R-Fmoc-aniline by fluoride ion; details: tetra-n-butylammonium chloride 3.0 eq., KF dihydrate 4.1 eq., acetonitrile, room temperature
Description: 3. General Procedure for Studying the Deblocking of Urethanes R-Fmoc-aniline (R=TMS, DMPS, DPMS, TIPS, DT-TMS) by Reaction with Fluoride Ion: To a solution of urethane (0.0513 mmol) in 0.7 mL of acetonitrile was added 45 mg (0.154 mmol, 3.0 eq.) of tetra-n-butyl-ammonium chloride and 20 mg (0.213 mmol, 4.1 eq.) of potassium fluoride dihydrate. The mixture was stirred at room temperature, the reaction being monitored by TLC with an eluant consisting of Skelly B--CH2 Cl2 (1:1).

[4] = Deblocking of R-Fmoc-aniline by trifluoroacetic acid; details: room temperature
Text: 1. General Procedure for Studying the stability of R-Fmoc-analine (R=TMS, DMPS, DPMS, DT-TMS, TIPS) in Trifluoroacetic Acid: To a solution of urethane (0.026 mmol) in […].) of trifluoroacetic acid. The mixture was stirred at room temperature and the course of the reaction was monitored by TLC with an eluant consisting of Skelly B--dichloromethane (1:1) to note the time needed for complete deblocking of the urethanes.

[5] = General statements on cleavage by piperidine or fluoride ion
[6] = Base deblocking of FM-Fmoc-PCA; details: room temperature
Description: A. Base Deblocking of FM-Fmoc-PCA: 1. In Piperidine Solution: To a solution of 24.96 mg of FM-Fmoc-PCA in 0.5 mL of DMF was added 0.5 mL (100 eq.) of piperidine. The mixture was stirred at room temperature. […] 2. In DBN Solution: To a solution of 12.81 mg of FM-Fmoc-PCA in 0.15 mL of DMF was added 0.15 mL (50 eq.) of 1,5-diazabicyclo[4,3,0]nonene-7 (DBN). The mixture was stirred at room temperature. […] 3. In DBU Solution: To a solution of 10.58 mg of FM-Fmoc-PCA in 0.15 mL of DMF was added 0.15 mL (50 eq.) of 1,8-diazabicyclo[5,4,0]undec-7-ene (DBU). The mixture was stirred at room temperature. […] 4. In TBD: To a solution of 18.95 mg of FM-Fmoc-PCA in 0.2 mL of DMF and 0.2 mL of pyridine was added 100 mg (20 eq.) of 1,5,9-triazabicyclo[4,4,0]dec-5-ene (TBD). The mixture was stirred at room temperature.

[7] = Base deblocking of substituted urethanes (U-PCA) by various amines; details: dichloromethane, room temperature
Text: 1. General Procedure for Studying the Base Deblocking of the Urethanes Fmoc-PCA, BTS-Fmoc-PCA, DT-Fmoc-PCA, and TMS-Fmoc-PCA: A mixture of urethane (0.05 mmol) in a solution prepared from an equal volume of base (2.5 mmol, 50 eq.) and dichloromethane was stirred at room temperature. The course of the reaction was monitored by TLC with an eluant consisting of Skelly B--ether (3:1).

[8] = Solubility of TMS-Fmoc and dichloro-Xmoc derivatives versus Fmoc analogs
Description: This latter property is particularly important when peptide synthesis is carried out in solution.

[9] = morpholine 50 eq., significant aminodibenzofulvene type adduct formed
[10] = piperidine 50 eq., significant aminodibenzofulvene type adduct formed

- time needed to complete the deblocking [1]: 3.5 h
- Time for Complete Deblocking ([1]; TBD 50 eq., pyridine): 25 min
- time for evidence for initiation of the deblocking [1]: 3.5 h
SMILES: O=C(Nc1ccc(Cl)cc1)OCC1c2ccccc2Oc2ccccc21 [Xmoc-PCA, 9-Xanthenylmethyl p-Chlorocarbanilate]

SMILES: CC(C)(C)c1ccc2c(c1)C(COC(=O)Nc1ccccc1)([Si](C)(C)C)c1cc(C(C)(C)C)ccc1-2 [DT-TMS, 2,7-Di-tert-butyl-9-trimethylsilyl-9-fluorenylmethyl Carbanilate]
- Time for Complete Deblocking ([2]; morpholine 100 eq.): 16 h
- Time for Complete Scavenging of Dibenzofulvene ([2]; morpholine 100 eq.): 1020 min
- Time for Complete Deblocking ([2]; piperidine 100 eq.): 13 h
- Time for Complete Scavenging of Dibenzofulvene ([2]; piperidine 100 eq.): 1080 min
- Time for Complete Deblocking ([2]; t-butylamine 100 eq.): > 24 h
- Time for Complete Deblocking by Fluoride Ion [3]: 10 min
- Time for Complete Deblocking by Trifluoroacetic Acid [4]: 50 min

- time for evidence for initiation of the deblocking [1]: 0.033 h
SMILES: O=C(Nc1ccc(Cl)cc1)OCC1c2cc(Cl)ccc2Oc2ccc(Cl)cc21 [DC-Xmoc-PCA, 2,7-Dichloro-9-xanthenylmethyl p-Chlorocarbanilate]

SMILES: C[Si](C)(c1ccccc1)C1(COC(=O)Nc2ccccc2)c2ccccc2-c2ccccc21 [DMPS, 9-Dimethyl(phenyl)silyl-9-fluorenylmethyl Carbanilate]
- Time for Complete Deblocking ([2]; morpholine 100 eq.): 0.783 h
- Time for Complete Scavenging of Dibenzofulvene ([2]; morpholine 100 eq.): 60 min
- Time for Complete Deblocking ([2]; piperidine 100 eq.): 0.667 h
- Time for Complete Scavenging of Dibenzofulvene ([2]; piperidine 100 eq.): 220 min
- Time for Complete Deblocking ([2]; t-butylamine 100 eq.): 3.5 h
- Time for Complete Deblocking by Fluoride Ion [3]: < 2 min
- Time for Complete Deblocking by Trifluoroacetic Acid [4]: 480 min

SMILES: CC(C)[Si](C(C)C)(C(C)C)C1(COC(=O)Nc2ccccc2)c2ccccc2-c2ccccc21 [TIPS, 9-Triisopropylsilyl-9-fluorenylmethyl Carbanilate]
- reaction with amine bases (TLC) ([2]; any of the bases tested, 100 eq., 24 hours): no reaction was detected
- Time for Complete Deblocking by Fluoride Ion [3]: 1080 min
- Time for Complete Deblocking by Trifluoroacetic Acid [4]: 34 min

SMILES: C[Si](c1ccccc1)(c1ccccc1)C1(COC(=O)Nc2ccccc2)c2ccccc2-c2ccccc21 [DPMS, 9-Diphenyl(methyl)silyl-9-fluoroenylmethyl Carbanilate]
- Time for Complete Deblocking ([2]; morpholine 100 eq.): 0.583 h
- Time for Complete Scavenging of Dibenzofulvene ([2]; morpholine 100 eq.): 51 min
- Time for Complete Deblocking ([2]; piperidine 100 eq.): 0.467 h
- Time for Complete Scavenging of Dibenzofulvene ([2]; piperidine 100 eq.): 150 min
- Time for Complete Deblocking ([2]; t-butylamine 100 eq.): 1.5 h
- Time for Complete Deblocking by Fluoride Ion [3]: < 2 min
- Time for Complete Deblocking by Trifluoroacetic Acid [4]: 1080 min

- deblocking by / stability to piperidine [5]: stable to piperidine
SMILES: O=C(Nc1ccc(Cl)cc1)OCC1c2ccccc2Oc2ccccc21 [Xmoc]

SMILES: CC(C)[Si](C(C)C)(C(C)C)C1(COC(=O)Nc2ccccc2)c2ccccc2-c2ccccc21 [derivative F]
- cleavage by fluoride ion ([5]; inorganic base, fluoride ion): cleaved by the inorganic base, fluoride ion
- deblocking by / stability to piperidine [5]: stable to piperidine

- time at which deblocking had begun ([6]; DBN 50 eq., DMF): ≤ 10 min
- Time for Complete Deblocking ([6]; DBN 50 eq., DMF, still not complete): > 24 h
- Time for Complete Deblocking ([6]; DBU 50 eq., DMF): 12 h
- time at which deblocking had begun ([6]; DBU 50 eq., DMF): ≤ 10 min
- start of deblocking ([6]; TBD 20 eq., DMF and pyridine): immediately
- time for complete deblocking-scavenging reaction ([6]; TBD 20 eq., DMF and pyridine): 1 h
- time at which first deblocking was detected ([6]; piperidine 100 eq., DMF): 12 h
SMILES: O=C(Nc1ccc(Cl)cc1)OCC1(CC2c3ccccc3-c3ccccc32)c2ccccc2-c2ccccc21 [FM-Fmoc-PCA, 9-(9'-Fluorenylmethyl)-9-fluorenylmethyl p-Chlorocarbanilate]

- time needed to complete the deblocking [1]: 6 h
- time for evidence for initiation of the deblocking [1]: 7 h
SMILES: O=C(Nc1ccc(Cl)cc1)OCC1c2ccccc2Cc2ccccc21 [DHAmoc-PCA, 3,10-Dihydro-9-anthracenylmethyl p-Chlorocarbanilate]

- Time for Complete Deblocking ([7]; ethanolamine 50 eq.): 45 min
- Time for Complete Scavenging of Dibenzofulvene Analogs ([7]; morpholine 50 eq.): 2.5 hr
- Time for Complete Deblocking [7, 9]: 75 min
- Time for Complete Scavenging of Dibenzofulvene Analogs ([7]; piperidine 50 eq.): 68 min
- Time for Complete Deblocking [7, 10]: < 3 min
- Time for Complete Deblocking ([7]; t-butylamine 50 eq.): 300 min
SMILES: O=C(Nc1ccc(Cl)cc1)OCC1c2ccccc2-c2ccccc21 [Fmoc-PCA, 9-fluorenylmethyl p-chlorocarbanilate, reference compound]

- solubility compared with Fmoc derivatives [8]: greater solubility than Fmoc derivatives
SMILES: O=C(Nc1ccc(Cl)cc1)OCC1c2cc(Cl)ccc2Oc2ccc(Cl)cc21 [2,7-dichloro analog of Xmoc]
- deblocking by / stability to piperidine [5]: deblocked by piperidine as easily as the Fmoc group

SMILES: C[Si](C)(C)C1(COC(=O)Nc2ccc(Cl)cc2)c2ccccc2-c2ccccc21 [Example 9-TMS-Fmoc]
- solubility compared with ordinary Fmoc analogs ([8]; in non-polar solvents): enormously more soluble in non-polar solvents than ordinary Fmoc analogs
- deblocking by / stability to piperidine [5]: deblocked by piperidine, although somewhat more slowly than the Fmoc group itself

- Time for Complete Deblocking ([7]; ethanolamine 50 eq.): 240 min
- Time for Complete Scavenging of Dibenzofulvene Analogs ([7]; morpholine 50 eq.): 13 hr
- Time for Complete Deblocking [7, 9]: 600 min
- Time for Complete Scavenging of Dibenzofulvene Analogs ([7]; piperidine 50 eq.): 84 min
- Time for Complete Deblocking [7, 10]: 12 min
- Time for Complete Deblocking ([7]; t-butylamine 50 eq.): 600 min
SMILES: CC(C)(C)c1ccc2c(c1)C(COC(=O)Nc1ccc(Cl)cc1)c1cc(C(C)(C)C)ccc1-2 [DT-Fmoc-PCA, 2,7-Di-tert-butyl-9-Fluorenylmethyl p-Chlorocarbanilate]

Source: US5101059A, “Amino acid protecting groups” (Research Corporation Technologies, Inc., priority 1989, dated 1992)
